Data set [1] has as its system Fibroblast (Flow 4000, lung fibroblasts). The data set can be described thus: toxicity on normal cells, tetrazolium-based proliferation assay (EZ4U kit). Type of data set: cell-based. Particulars: for % Inhibition of growth: concentration of 1:400, normal cells, Flow 4000 lung fibroblasts, 4 days incubation; for toxicity to fibroblasts: result in words. On the procedure: Cells were distributed to the wells of 96 well microtiter plates (10000 cells/well) in tissue culture medium (RPMI-1640 supplemented with 10% fetal bovine serum and 4 mM glutamine) and medium added for controls. Test compounds were added in the reported dilution steps and the plates incubated for 4 days under tissue culture conditions (37° C., 5% CO2).
Following incubation proliferation was measured using a tetrazolium-based assay (EZ4U kit, Biomedica, Vienna, Austria). Optical densities (OD) of the individual wells was determined with the help of an ELISA-Reader (all values done in triplicate) and the values obtained in medium controls set to 100% (OD490nm=0.5-1.5).
In addition the toxicity of a number of the esters of the invention have been tested on normal cells, Fibroblast (Flow 4000, lung fibroblasts).

In data set [2] the test system is panel of human tumour cell lines. Description: anti-cancer activity, tetrazolium-based proliferation assay (EZ4U kit) in a panel of tumour cell lines. As to conditions: result in words. How it is done:
For the following test the following cell lines have been used:
Cell lines. Except indicated otherwise all cell lines were obtained from the American Type Culture Collection (ATCC, Rockville, Md.) and grown to confluent monolayers in RPMI-1640 bicarbonate medium (Seromed, Berlin, Germany) in a humidified incubator (5% CO2, 37° C.). Cells were checked for mycoplasma contamination. The medium was supplemented with 10% heat-inactivated fetal bovine serum (Seromed) and 4 mM glutamine. The cells were subcultured by trypsination (0.03% trypsin containing 0.02% EDTA, three times a week). Cell numbers were counted using a TOA Sysmex microcellcounter (TOA, Tokyo, Japan).
Chemicals and solutions. Unless otherwise mentioned, all chemicals were obtained from Sigma (St. Louis, Mo.). Compounds to be tested were used as supplied. CHP was used as 5 mg/ml stock solution in PBS (phosphate buffered saline, Dulbecco) and aliquots were stored frozen at −20° C. Related compounds were used as 2 mg/ml stock solution and stored frozen at −20° C. […]
Following incubation proliferation was measured using a tetrazolium-based assay (EZ4U kit, Biomedica, Vienna, Austria). Optical densities (OD) of the individual wells was determined with the help of an ELISA-Reader (all values done in triplicate) and the values obtained in medium controls set to 100% (OD490nm=0.5-1.5). […]

Take `CCC(=O)OCC#CCN1CCOCC1` [L15, N-(4-morpholino-2-butynyl)propionate]: the “% Inhibition of growth” value in data set [1] came out at 13%.

For `O=C(OCC#CCN1CCOCC1)c1ccccc1` [L4, N-(4-morpholino-2-butynyl)benzoate], in data set [1], the “% Inhibition of growth” value is listed as 34.2%.

Take `CC(=O)OCC#CCN1CCSCC1` [L13, N-(4-thiomorpholino-2-butynyl)acetate]: in data set [1], the “% Inhibition of growth” value is given as 19%.

For `CC(=O)OCC#CCN1CCOCC1` [L2, N-(4-morpholino-2-butynyl)acetate], in data set [1], the “% Inhibition of growth” value stood at 18% and the toxicity to fibroblasts entry is recorded as “low toxicity to fibroblasts”. The antitumor activity entry in data set [2] was “highest antitumor activity”.

Regarding `CC(=O)OCC#CCN(c1ccccc1)c1ccccc1` [L12, N-[4-(N,N-diphenylamino)-2-butynyl]acetate], in data set [1], the “% Inhibition of growth” value is reported as −7.6%.

On to `CCN(CC)CC#CCOC(C)=O` [L9, N-[4-(N,N-diethylamino)-2-butynyl]acetate], for which, in data set [1], the “% Inhibition of growth” value came out at 5.4%.

Consider `O=COCC#CCN1CCOCC1` [L6, N-(4-morpholino-2-butynyl)formate], for which, in data set [1], the “% Inhibition of growth” value is listed as 37.4%.

As to `CC(C)(C)C(=O)OCC#CCN1CCOCC1` [L18, N-(4-morpholino-2-butynyl)pivalate], in data set [1], the “% Inhibition of growth” value was 7% and the toxicity to fibroblasts entry is “low toxicity to fibroblasts”. The antitumor activity entry in data set [2] was “highest antitumor activity”.

The % Inhibition of growth is the change of the read-out against control, counted positive when it falls.

(Values after patent publication US20070265269A1, “Water Soluble Esters of [N-(4-Amino-2-Butynyl)] with Anticancer Activity” (priority 2004, published 2007).)
